Patent publication US8895032B2, “Dendritic nano-antioxidants” (Central Michigan University, priority 2009, dated 2014)

System: pBR 322 DNA with Cu2+
Assay: Pro-oxidant effect: oxidation of DNA with copper (II) ion
Settings: 10 μM Cu2+, 37° C., 1 h
Procedure: The pro-oxidant effect of compounds 1, 2, and 3 was examined by oxidation of DNA with copper (II) ion. pBR 322 was incubated with 10 μM Cu^2+ at 37° C. for 1 h in the presence of compound 1, 2, or 3 (final concentrations between 0.35 and 45 μM). […] Lane 1 is native DNA, and lanes 2-10 are Cu^2+-oxidized DNA with 0, 45, 23, 11, 5, 3, 1.5, 0.7, and 0.35 μM antioxidant, respectively.
This was performed by co-incubation of DNA (pBR 322), copper (II) ion and antioxidant. […] This ultimately forms DNA-Cu(I)OOH, initiating a free radical cascade by which DNA damage occurs. pBR 322 was incubated with 10 μM Cu^2+ in the presence of antioxidants (0-45 μM) at 37° C. for 1 h and subjected to agarose electrophoresis. […] In FIG. 32, lane 1 is native DNA, and lanes 2-10 are Cu^2+ oxidized DNA with 0, 45, 23, 11, 5, 3, 1.5, 0.7, and 0.35 μM antioxidant, respectively. […] However, it should be noted that physiological concentrations of copper are less than 10-20 μM in plasma and approximately […] for the cation in cells.

Cc1c(C)c2c(c(C)c1O)CCC(C)(C(=O)O)O2 (centres unmarked) [Trolox, 6-hydroxy-2,5,7,8-tetramethylchroman-2-carboxylic acid]
pro-oxidant effect on DNA at the concentrations tested (0.35-45 μM antioxidant): strong pro-oxidant effect equivalent to quercetin | pro-oxidant DNA damage (11-45 μM antioxidant): DNA damage was clearly observed
